{"source": "patent US20060194814A1", "about": "“Benzamide compounds” (priority 2003, published 2006)", "key": {"HIV-1 IIIB strain": {"system": "HIV-1 IIIB strain", "experiment": "HIV-1 IIIB replication in HeLa indicator cells (AV-Finder-HIV assay), no pre-medication", "assay_type": "cell-based"}, "[1]": {"system": "H295R human adrenal tumor cells", "experiment": "MTT mitochondrial function/cell viability in H295R cells", "assay_type": "cell-based", "protocol": "Cell viability at the end of the incubation protocol described above was assessed using the mitochondrial integrity 3-(4,5-dimethylthiazol-2-yl)-2,5-diphenyl tetrazolium bromide (MTT) assay (Trevigen, Gaithersburg, Md.). Briefly, 10 l of the MTT solution were added to the cells in 100 l medium. After an incubation period of 4 hours, 100 l of detergent were added and cells were incubated overnight at 37° C. Formazan blue formation was quantified at 600 nm and 690 nm using the Victor quantitative detection spectrophotometer (EGG-Wallac, Gaithersburg, Md.) and the results expressed as (OD600-OD690)."}, "PKA": {"system": "PKA", "experiment": "dbcAMP-stimulated PKA activity (PepTag assay) in Y1 cells", "assay_type": "cell-based, mouse", "design": "dose or concentration left out as unconfirmed", "protocol": "Y1 cells were cultured in 6-well plates (2×10^5 cells per well) and treated as described above for steroid biosynthesis. At the end of the incubation, cells were washed twice with PBS and proteins were extracted using an extraction buffer (25 mM tris-HCl, pH 7.4, 0.5 mM EDTA, 0.5 mM EGTA, 10 mM -mercaptoethanol, 0.5 mM PMSF, 1 g/ml leupeptin, and 1 g/ml aprotinin). After centrifugation at 18,500 g for 15 minutes, the supernatants were kept for PKA activity assay. Samples were processed using the PepTag assay for non-radioactive detection of PKA activity following the manufacturer's recommendations (Promega Corporation, Madison, Wis.)."}, "P-450scc enzyme": {"system": "P-450scc enzyme", "experiment": "Immunoblot of P-450scc expression in Y1 cells", "assay_type": "cell-based, mouse", "conditions": "immunoblot of cell extracts", "protocol": "At the end of the treatment protocol described above, Y1 cells at 90% confluency were washed 2 times with PBS, sonicated 15 seconds in extraction buffer and centrifuged at 18,500 g for 15 minutes at 4° C. Pellets were resuspended in ice-cold lysis buffer (1% Nonidet 40 in extraction buffer), sonicated briefly, and incubated on ice for 1 hour. After centrifugation (22,500 g×30 min, 4° C.), the supernatant was mixed in sample buffer 6× (0.27 M SDS, 0.6 M dithiothreitol, 0.18 M bromphenol blue in 7 ml of 0.5 M Tris-HCl, pH 6.8, and 3 ml glycerol) and boiled for 5 minutes. Proteins were subjected to SDS-PAGE (4-20% gradient SDS polyacrylamide gel) and electrophoretically transferred onto nitrocellulose membranes. The transblot sheets were blocked with 5% non fat dry milk in 25 mM Tris HCl, pH 7.5, 150 mM NaCl, and 0.1% Tween 20 overnight at 4° C. Membranes were then incubated with appropriately diluted primary antibodies 1:800 for anti-P-450scc (Research Diagnostics Inc. Flanders, N.J.) and 1:200 for anti-StAR (Amri et al., 1996), and the reaction was detected by a peroxidase-conjugated secondary antibody (Santa Cruz Biotechnology, Santa Cruz, Calif.) and enhanced chemiluminescence (Amersham Life, Arlington Heights, Ill.). The densities of the appropriate bands were determined using the OptiQuant Acquisition & Analysis software (Packard BioScience)."}, "HMG-CoA reductase": {"system": "HMG-CoA reductase", "experiment": "HMG-CoA reductase activity in procaine-treated Y1 cells", "assay_type": "cell-based, mouse", "design": "percent inhibition of HMG-CoA reductase activity: unit of the concentration uncertain", "protocol": "Cells were washed twice with ice-cold PBS and incubated with ice-cold assay buffer (0.1M sucrose, 40 mM KH2PO4, 30 mM EDTA, 50 mM KCl, 5 mM DTT, 0.25% (v/v) of Brij 96, at pH 7.4) on ice for 20 minutes. After centrifugation for 3 minutes at 14000 g (4° C.) the supernatants were collected and used for HMG-CoA reductase activity assay. […] The reaction was started by adding substrate (^14C-HMG-CoA, 0.1 Ci) and stopped after 45 minutes by adding 10-1 of HCl 6M. ^3H-mevalonolactone was also added to the samples as an extraction recovery marker. After an additional 30 minutes incubation time, to allow complete lactonization of the product, the mixture was centrifuged."}, "HMG-CoA reductase mRNA [2]": {"system": "HMG-CoA reductase mRNA", "experiment": "HMG-CoA reductase mRNA expression by Q-PCR in Y1 cells", "assay_type": "cell-based, mouse", "protocol": "(§1) After treatment, cells were stimulated with 1 mM dbcAMP for 24 hours. At the end of the incubation, total cell RNA was extracted using RNA STAT-60 (Tel-Test Inc, Friendswood, Tex.) according to the manufacturer's instructions. HMG-CoA reductase mRNA was quantified by Q-PCR using the ABI Prism 7700 sequence detection system (Perkin-Elmer/Applied Biosystems, Foster City, Calif.). RT reaction was performed using TaqMan® Reverse Transcription Reagents with 1 g total RNA and random hexamers as primers for each reaction according to the manufacturer's instructions. For quantifying mouse HMG-CoA reductase mRNA with Q-PCR, the primers were designed according to GenBank Accession Number BC 019782 using PE/AB Primer Express software, which is specifically designed for the selection of primers and probes. The forward primer was 5′-[…]-3′ (22 nucleotides; SEQ ID NO:1) and reverse primer was 5′-[…]-3′ (23 nucleotides; SEQ ID NO:2), respectively. The primers were synthesized by Bio-Synthesis Inc. (Lewisville, Tex.). Reactions were performed in a reaction mixture consisting of a 20 l volume solution containing 10 l SYBR® Green PCR Master Mix and 1 l primers mix (5 M each) with 2 l cDNA."}, "HMG-CoA reductase mRNA [3]": {"system": "HMG-CoA reductase mRNA", "experiment": "HMG-CoA reductase mRNA expression by Q-PCR in UT-1 cells", "assay_type": "cell-based, Chinese hamster", "protocol": "as §1"}, "HMG-CoA reductase mRNA [4]": {"system": "HMG-CoA reductase mRNA", "experiment": "HMG-CoA reductase mRNA expression by Q-PCR in Hepa1-6 cells", "assay_type": "cell-based", "conditions": "Hepa1-6 mouse liver hepatoma cells", "protocol": "as §1"}}, "note": "Where a name gives a salt, the structure may show the parent alone.", "data": [{"smiles": "CCN(CC)CCOC(=O)c1ccc(N)cc1", "note": "[SP01, procaine HCl]", "values": [{"measurement": "efficacy in reducing HIV-1 IIIB replication compared to AZT, ddI or 3TC", "setting": "HIV-1 IIIB strain; human cells", "value": "efficacy higher than AZT, ddI or 3TC"}, {"measurement": "efficacy on HIV-1 IIIB viral replication compared to 3TC", "setting": "HIV-1 IIIB strain; no pre-medication, concentrations up to 0.1 μM", "value": "higher efficacy than the classical antiviral agent 3TC"}, {"measurement": "effect on dbcAMP-induced change of mitochondrial function (MTT)", "setting": "[1]", "value": "protected against the dbc-AMP-induced change of mitochondrial function"}, {"measurement": "effect on dbcAMP-stimulated PKA activity", "setting": "PKA", "value": "no significant effect"}, {"measurement": "effect on expression of the P-450scc enzyme", "setting": "P-450scc enzyme", "value": "did not modify"}, {"measurement": "percent inhibition of HMG-CoA reductase activity", "setting": "HMG-CoA reductase; concentration 1 (unit uncertain)", "value": 44, "unit": "%"}, {"measurement": "percent inhibition of HMG-CoA reductase activity", "setting": "HMG-CoA reductase; concentration 10 (unit uncertain)", "value": 72, "unit": "%"}, {"measurement": "percent inhibition of HMG-CoA reductase activity", "setting": "HMG-CoA reductase; concentration 100 (unit uncertain)", "value": 70}, {"measurement": "concentration giving maximal inhibition of HMG-CoA reductase activity", "setting": "HMG-CoA reductase; dbcAMP stimulated", "value": 10, "unit": "µM"}, {"measurement": "effect on dbcAMP-induced HMG-CoA reductase mRNA levels", "setting": "HMG-CoA reductase mRNA [2]; pretreatment for 24 hours", "value": "reduced in a dose-dependent manner"}, {"measurement": "earliest treatment time inhibiting dbcAMP-induced HMG-CoA reductase mRNA expression", "setting": "HMG-CoA reductase mRNA [2]; time-course", "value": 6, "unit": "h"}, {"measurement": "effect on HMG-CoA reductase mRNA expression", "setting": "HMG-CoA reductase mRNA [3]", "value": "not significant"}, {"measurement": "effect on dbcAMP-induced HMG-CoA reductase mRNA levels", "setting": "HMG-CoA reductase mRNA [4]", "value": "inhibited"}]}]}
